Experimental data as given in PubChem BioAssay (NCI).
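The compound was tested at five concentrations on cells cultured in 96-well plates, with a 48-hour exposure period. Abbreviation: GI50, concentration required for 50% inhibition of growth. TGI: total growth inhibition.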 Where a SMILES comes first, the peptide text is derived from it. [ ]: non-standard residue; d: D form. The star is where a group is joined. X13 = OC[C@H](CC1CCCCC1)N*; dIva = CC[C@@](C)(N)C(=O)O; Aib = CC(C)(N)C(=O)O

Assays:
Experiment in all cases: DTP human tumour cell line panel, 48 h
[1] = test system: NCI-H522 lung
[2] = test system: OVCAR-3 ovarian
[3] = test system: RXF 393 renal
[4] = test system: PC-3 prostate
[5] = test system: MCF7 breast
[6] = test system: HCC-2998 colon
[7] = test system: UO-31 renal
[8] = test system: MDA-MB-435
[9] = test system: HCT-15 colon
[10] = test system: A498 renal
[11] = test system: CCRF-CEM leukemia
[12] = test system: OVCAR-4 ovarian
[13] = test system: SW-620 colon
[14] = test system: A549 NSCLC
[15] = test system: HT29 colon
[16] = test system: SF-539 CNS
[17] = test system: UACC-62 melanoma
[18] = test system: NCI-H226 lung
[19] = test system: HOP-92 NSCLC
[20] = test system: SN12C renal
[21] = test system: SK-OV-3 ovarian
[22] = test system: SNB-75 CNS
[23] = test system: MALME-3M melanoma
[24] = test system: SF-295 CNS
[25] = test system: OVCAR-5 ovarian
[26] = test system: TK-10 renal
[27] = test system: SK-MEL-2 melanoma
[28] = test system: SF-268 CNS
[29] = test system: U251 CNS
[30] = test system: COLO 205 colon
[31] = test system: RPMI-8226 leukemia
[32] = test system: SK-MEL-28 melanoma
[33] = test system: K-562 leukemia
[34] = test system: HS 578T breast
[35] = test system: OVCAR-8 ovarian
[36] = test system: NCI-H460 lung
[37] = test system: UACC-257 melanoma
[38] = test system: NCI/ADR-RES ovarian
[39] = test system: T-47D breast
[40] = test system: ACHN renal
[41] = test system: NCI-H23 lung
[42] = test system: SNB-19 CNS
[43] = test system: MDA-MB-231 breast
[44] = test system: SR leukemia
[45] = test system: HL-60(TB) leukemia
[46] = test system: SK-MEL-5 melanoma
[47] = test system: IGROV1 ovarian
[48] = test system: HOP-62 NSCLC
[49] = test system: LOX IMVI melanoma
[50] = test system: KM12 colon
[51] = test system: EKVX NSCLC
[52] = test system: MOLT-4 leukemia

CC[C@@](C)(NC(=O)C(C)(C)NC(=O)[C@@H](NC(=O)[C@@H]1CCCN1C(=O)C(C)(C)NC(=O)[C@H](CC(C)C)NC(=O)CNC(=O)C(C)(C)NC(=O)[C@@H](NC(=O)C(C)(C)NC(=O)[C@H](CCC(N)=O)NC(=O)[C@H](C)NC(=O)C(C)(C)NC(=O)[C@H](C)NC(=O)C(C)(C)NC(=O)[C@H](C)NC(=O)C(C)(C)NC(C)=O)C(C)C)C(C)C)C(=O)N[C@@H](CCC(N)=O)C(=O)N[C@@H](CCC(N)=O)C(=O)N[C@H](CO)CC1CCCCC1 (Ac-[Aib]A[Aib]A[Aib]AQ[Aib]V[Aib]GL[Aib]PV[Aib][dIva]QQ-X13)
GI50 [1]: 1280 nM | TGI [1]: > 5000 nM | GI50 [2]: 1250 nM | TGI [2]: > 5000 nM | GI50 [3]: 1750 nM | TGI [3]: > 5000 nM | GI50 [4]: 1320 nM | TGI [4]: > 5000 nM | GI50 [5]: 281 nM | TGI [5]: > 5000 nM | GI50 [6]: 2040 nM | TGI [6]: > 5000 nM | GI50 [7]: > 5000 nM | TGI [7]: > 5000 nM | GI50 [8]: 1550 nM | TGI [8]: > 5000 nM | GI50 [9]: > 5000 nM | TGI [9]: > 5000 nM | GI50 [10]: 1390 nM | TGI [10]: > 5000 nM | GI50 [11]: 2790 nM | TGI [11]: > 5000 nM | GI50 [12]: 2820 nM | TGI [12]: > 5000 nM | GI50 [13]: 3650 nM | TGI [13]: > 5000 nM | GI50 [14]: 3000 nM | TGI [14]: > 5000 nM | GI50 [15]: 2250 nM | TGI [15]: > 5000 nM | GI50 [16]: 1490 nM | TGI [16]: > 5000 nM | GI50 [17]: 1860 nM | TGI [17]: > 5000 nM | GI50 [18]: > 5000 nM | TGI [18]: > 5000 nM | GI50 [19]: 854 nM | TGI [19]: 3380 nM | GI50 [20]: 460 nM | TGI [20]: > 5000 nM | GI50 [21]: 1890 nM | TGI [21]: > 5000 nM | GI50 [22]: 1240 nM | TGI [22]: > 5000 nM | GI50 [23]: 1180 nM | TGI [23]: 3980 nM | GI50 [24]: > 5000 nM | TGI [24]: > 5000 nM | GI50 [25]: 2840 nM | TGI [25]: > 5000 nM | GI50 [26]: > 5000 nM | TGI [26]: > 5000 nM | GI50 [27]: 1220 nM | TGI [27]: 3830 nM | GI50 [28]: 1740 nM | TGI [28]: > 5000 nM | GI50 [29]: 1490 nM | TGI [29]: > 5000 nM | GI50 [30]: 1470 nM | TGI [30]: > 5000 nM | GI50 [31]: 198 nM | TGI [31]: 1870 nM | GI50 [32]: 2040 nM | TGI [32]: > 5000 nM | GI50 [33]: 1780 nM | TGI [33]: > 5000 nM | GI50 [34]: 1810 nM | TGI [34]: > 5000 nM | GI50 [35]: > 5000 nM | TGI [35]: > 5000 nM | GI50 [36]: 1600 nM | TGI [36]: > 5000 nM | GI50 [37]: 1000 nM | TGI [37]: 4410 nM | GI50 [38]: > 5000 nM | TGI [38]: > 5000 nM | GI50 [39]: 1560 nM | TGI [39]: > 5000 nM | GI50 [40]: > 5000 nM | TGI [40]: > 5000 nM | GI50 [41]: 1060 nM | TGI [41]: > 5000 nM | GI50 [42]: 1380 nM | TGI [42]: > 5000 nM | GI50 [43]: 1530 nM | TGI [43]: > 5000 nM | GI50 [44]: 2010 nM | TGI [44]: > 5000 nM | GI50 [45]: 1440 nM | TGI [45]: 4020 nM | GI50 [46]: 1310 nM | TGI [46]: 4840 nM | GI50 [47]: 2650 nM | TGI [47]: > 5000 nM | GI50 [48]: > 5000 nM | TGI [48]: > 5000 nM | GI50 [49]: 1490 nM | TGI [49]: > 5000 nM | GI50 [50]: 1890 nM | TGI [50]: > 5000 nM | GI50 [51]: > 5000 nM | TGI [51]: > 5000 nM | GI50 [52]: 2650 nM | TGI [52]: > 5000 nM
